Consider three molecules from paper PMC4979595, “Pilot PET Study to Assess the Functional Interplay Between ABCB1 and ABCG2 at the Human Blood–Brain Barrier” (Clinical Pharmacology and Therapeutics, 2016).

A short description of series [1]: Radiolabeled metabolites / unchanged radiotracer in plasma during PET (solid-phase extraction). As to conditions: 60 minutes after injection, c.421CC subjects.
The test system of series [2] is ABCB1 and ABCG2 at the human BBB. Kind of series: PET brain distribution of radiotracers, baseline scan and scan during ABCB1 inhibition with tariquidar infusion. As to conditions: for K 1 / k 2 / k 3 / k 4: 2T4K model; for K 1 / k 2 / k 3 / k 4 / V T (2T4K) / V T (Logan): whole brain; for whole brain V T (Logan) lower than V T (Logan) in the pituitary gland: c.421CC subjects.
From the text: (§1) A whole brain gray matter region of interest was defined on individual magnetic resonance images acquired in all study participants (T1‐weighted Achieva 3.0T scanner; Philips Medical Systems, Best, The Netherlands) using the Hammersmith n30r83 3D maximum probability atlas of the human brain.43 In addition, the pituitary gland was manually delineated.

Series [3] in a line: Plasma time-activity curve AUC of radiotracers. Conditions: c.421CC.
From the text: as §1
Series [4] in a line: Plasma protein binding by ultrafiltration. As to conditions: similar in baseline and ABCB1 inhibition scans, high nonspecific filter binding.
A short description of a further series: in vitro. Conditions: human, plasma.
The subject of series [5] is ABCB1 and ABCG2 at the human BBB. As to conditions: in vivo.
From the text: as §1
In a further series the target is T1, human ABCG2 (Homo sapiens, UniProt Q9UNQ0).
T1 construct: P. Borst and Dr. A. Schinkel (Netherlands Cancer Institute); host or cells: MDCK-II (MDCK-ABCG2)
T1 sequence (Q9UNQ0 1-655): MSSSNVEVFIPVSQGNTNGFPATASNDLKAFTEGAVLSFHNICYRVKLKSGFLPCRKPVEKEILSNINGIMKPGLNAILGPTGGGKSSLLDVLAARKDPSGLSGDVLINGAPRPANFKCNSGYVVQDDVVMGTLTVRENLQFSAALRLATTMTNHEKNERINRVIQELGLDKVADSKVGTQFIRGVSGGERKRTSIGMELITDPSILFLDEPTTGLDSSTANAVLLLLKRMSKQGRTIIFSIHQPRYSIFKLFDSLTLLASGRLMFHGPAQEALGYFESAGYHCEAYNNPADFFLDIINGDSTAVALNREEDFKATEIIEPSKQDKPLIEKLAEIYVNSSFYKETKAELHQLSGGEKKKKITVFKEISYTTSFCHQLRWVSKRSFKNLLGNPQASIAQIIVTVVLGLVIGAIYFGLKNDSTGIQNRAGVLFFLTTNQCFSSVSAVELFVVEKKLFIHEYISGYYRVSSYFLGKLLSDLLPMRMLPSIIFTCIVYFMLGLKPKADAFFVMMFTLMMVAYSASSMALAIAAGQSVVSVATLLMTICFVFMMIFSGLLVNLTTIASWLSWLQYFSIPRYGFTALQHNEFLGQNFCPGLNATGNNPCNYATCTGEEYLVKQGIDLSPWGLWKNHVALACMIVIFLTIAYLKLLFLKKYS
Kind of series: In vitro uptake assay in MDCK-ABCG2 cells: tariquidar inhibition of ABCG2-mediated transport. The format is cell-based. As to conditions: for IC50: IC50 of tariquidar for inhibition of ABCG2 transport, 120 min uptake. The procedure: LLC‐PK1 cells transduced with human ABCB1 (LLC‐ABCB1) and MDCK‐II cells transduced with human ABCG2 (MDCK‐ABCG2) were kindly provided by Prof. P. Borst and Dr. A. Schinkel (Netherlands Cancer Institute, Amsterdam, Netherlands). Culturing of the cells and testing of vincristine sulfate resistance (0.64 μmol/L) for LLC‐ABCB1 cells and mitoxantrone resistance (20 μmol/L) for MDCK‐ABCG2 cells was performed as described previously.46
Cells were seeded with a density of 0.3 × 10^6 cells/cm^2 on 96‐well plates (white Isoplates for liquid scintillation counting, Perkin Elmer, Rodgau, Germany). Then 5–7 days after the cells reached 100% confluence, the experiment was initiated with 1‐hour preincubation at 37°C, 5% carbon dioxide, and 95% humidity, for which culture medium was replaced by serum‐free Opti‐MEM (Gibco/Life Technologies, Darmstadt, Germany). […] After 120 minutes (37°C, 5% carbon dioxide, 95% humidity), cells were transferred on ice, washed twice with ice‐cold phosphate‐buffered saline before lysis buffer (25 mmol/L Tris, pH 8, 50 mmol/L sodium chloride, 0.5% (w/v) deoxycholic acid, 0.5% (w/v) Triton X‐100) supplemented with complete protease inhibitor (Roche, Mannheim, Germany) was added and protein concentrations in the respective wells were determined by using the Pierce BCA Protein Assay kit (ThermoScientific, Pittsburgh, PA).
With Prism 6.0 software (GraphPad Software, La Jolla, CA), a sigmoidal model with variable slope was used to analyze concentration–response relationships by nonlinear regression.

The nature of series [6]: Tariquidar plasma concentrations during second PET scan (LC-MS/MS).
Details of series [7]: method as in earlier work. As to conditions: (R)-[^11C]verapamil group, no ABCG2 genotype available, data from previous study, cited from earlier work.
Series [8] is described as follows: Safety monitoring: adverse events during study participation. The format is in vivo, human. Conditions: relationship with tariquidar administration could not be excluded. The procedure:
During the PET study, heart rate and blood pressure were repeatedly measured and recorded. In addition, clinical laboratory blood and urine tests were performed. Adverse events were recorded.

Series [9] has as its target T2, human ABCB1 (Homo sapiens, UniProt P08183).
For a further series, the system named is ABCB1 at the human BBB. More on the design: method as in PMID 25669913. Conditions: tariquidar plasma concentration; previously estimated; read-out: in vivo IC50 for inhibition of ABCB1 transport of (R)-[^11C]verapamil at the human BBB; cited from earlier work.
Series [10] addresses T2, human ABCB1. Description: cell-based.

Where “and” joins values, the source holds several entries; their conditions need not be identical. Identical values can stand only once. Like-named read-outs stand apart in the source and are kept apart here. Marks after values point to notes of the source that are not given here. Where only a bound is given, the exact number is not on record here.

T2 sequence (P08183 whole entry): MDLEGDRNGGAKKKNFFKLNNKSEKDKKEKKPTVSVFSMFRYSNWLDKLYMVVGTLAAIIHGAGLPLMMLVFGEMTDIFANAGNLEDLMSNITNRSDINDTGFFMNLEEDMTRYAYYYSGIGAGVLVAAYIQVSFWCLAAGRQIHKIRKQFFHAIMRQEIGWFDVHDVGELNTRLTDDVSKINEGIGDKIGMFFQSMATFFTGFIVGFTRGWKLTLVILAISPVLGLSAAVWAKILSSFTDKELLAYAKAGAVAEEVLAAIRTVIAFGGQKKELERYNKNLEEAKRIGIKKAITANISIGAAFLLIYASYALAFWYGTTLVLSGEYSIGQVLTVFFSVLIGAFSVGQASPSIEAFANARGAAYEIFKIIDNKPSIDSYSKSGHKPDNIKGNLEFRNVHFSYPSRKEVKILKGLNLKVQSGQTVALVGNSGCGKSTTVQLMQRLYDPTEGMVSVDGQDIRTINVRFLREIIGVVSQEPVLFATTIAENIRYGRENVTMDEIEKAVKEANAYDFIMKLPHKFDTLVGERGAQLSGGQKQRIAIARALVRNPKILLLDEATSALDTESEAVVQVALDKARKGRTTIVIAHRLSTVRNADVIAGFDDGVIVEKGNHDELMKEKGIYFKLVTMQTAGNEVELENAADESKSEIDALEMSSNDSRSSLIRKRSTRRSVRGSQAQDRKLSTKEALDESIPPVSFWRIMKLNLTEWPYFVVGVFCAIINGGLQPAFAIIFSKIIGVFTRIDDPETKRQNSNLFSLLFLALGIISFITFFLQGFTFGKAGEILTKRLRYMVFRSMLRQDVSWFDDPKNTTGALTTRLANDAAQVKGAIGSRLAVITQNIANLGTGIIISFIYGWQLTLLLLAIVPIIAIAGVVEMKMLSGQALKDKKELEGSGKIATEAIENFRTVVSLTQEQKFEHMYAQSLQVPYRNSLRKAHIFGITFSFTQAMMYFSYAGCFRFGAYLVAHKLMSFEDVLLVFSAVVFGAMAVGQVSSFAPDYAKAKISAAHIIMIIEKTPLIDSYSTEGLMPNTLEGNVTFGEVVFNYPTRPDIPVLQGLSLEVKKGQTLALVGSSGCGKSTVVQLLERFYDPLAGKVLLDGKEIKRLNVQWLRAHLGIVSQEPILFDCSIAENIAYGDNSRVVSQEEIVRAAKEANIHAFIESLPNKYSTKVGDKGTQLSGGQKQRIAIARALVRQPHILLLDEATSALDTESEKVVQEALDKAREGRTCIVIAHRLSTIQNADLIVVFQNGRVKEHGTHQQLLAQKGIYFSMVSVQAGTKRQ

As for `COc1cc2c(cc1OC)CN(CCc1ccc(NC(=O)c3cccc4c(=O)c5cccc(OC)c5[nH]c34)cc1)CC2` [[^11C]elacridar], the “percentage of unchanged radiotracer in plasma” value in series [1] (baseline scans) is on record as 94.6 ± 2.3%. For the same molecule, in series [1] (second PET scan (tariquidar infusion)), the “percentage of unchanged radiotracer in plasma” value was found to be 94.7 ± 1.1%. In addition, in [2] (c.421CC ABCB1 inhibition), the “K 1” value is listed as 0.013 ± 0.005 (8) mL/(g x min), the “k 2” value is reported as 0.302 ± 0.250 (31) 1/min, the “k 3” value was 0.198 ± 0.050 (21) 1/min and the “k 4” value is on record as 0.016 ± 0.003 (13) 1/min. Besides, in series [2] (c.421CC ABCB1 inhibition), the “V T (2T4K)” value is recorded as 0.676 ± 0.111 (6) and the “V T (Logan)” value is on record as 0.658 ± 0.098 (9). Moreover, in series [2] (c.421CC baseline), the “K 1” value was 0.006 ± 0.002 (9) mL/(g x min), the “k 2” value is 0.135 ± 0.050 (33) 1/min, the “k 3” value is 0.148 ± 0.040 (22) 1/min and the “k 4” value was 0.015 ± 0.004 (17) 1/min. In addition, in [2] (c.421CC baseline), the “V T (2T4K)” value is 0.492 ± 0.051 (9) and the “V T (Logan)” value was 0.478 ± 0.027 (6). Also, the “whole brain V T (Logan) lower than V T (Logan) in the pituitary gland” value in [2] (scan 1 (baseline)) is 13.2 ± 4.6 fold. Moreover, the “whole brain V T (Logan) lower than V T (Logan) in the pituitary gland” value in series [2] (scan 2 (ABCB1 inhibition)) stood at 7.9 ± 2.1 fold. The “baseline whole brain V T (Logan) lower in humans than in rats” value in [2] (comparison with a previous preclinical study) is on record as approximately 2 fold. In addition, in [2] (pituitary gland), the “V T (Logan) in the pituitary gland during tariquidar infusion as compared with baseline scans” value is recorded as “not significantly different”. In [2] (single c.421CA subject with the highest increase (scanned with both radiotracers)), the “increase in V T (Logan) in scan 2” value was found to be 2.3 fold. Moreover, in series [3] (0 to 60 min), the “AUC ABCB1 inhibition (plasma time-activity curve)” value worked out at 46.9 ± 8.0 SUV x min and the “AUC baseline (plasma time-activity curve)” value came out at 37.2 ± 6.2 SUV x min. Further, the “% change over baseline (plasma AUC)” value in series [3] is recorded as 27 ± 12%. The same molecule displayed a Plasma protein binding in series [4] of more than 99%.
Consider `COc1cc2c(cc1OC)CN(CCc1ccc(NC(=O)c3cc(OC)c(OC)cc3NC(=O)c3cnc4ccccc4c3)cc1)CC2` [[^11C]tariquidar], for which, in the series “in vitro”, the fraction unbound (as a rule, free concentration divided by total concentration) is less than 0.01. Besides, the “baseline whole brain V T (Logan) lower in humans than in rats” value in [5] (human compared with rat) is given as approximately 2 fold. Further, in [5] (human), the “V T (Logan)” value was determined as 0.40 and the “increase in V T (Logan) in scan 2” value is 3.1 fold.
Regarding `COc1cc2c(cc1OC)CN(CCc1ccc(NC(=O)c3cc(OC)c(OC)cc3NC(=O)c3cnc4ccccc4c3)cc1)CC2` [tariquidar], the IC50 (as a rule, the point on the concentration scale where inhibition reaches its midpoint) against human ABCG2 ([^3H]elacridar (1 nmol/L) as substrate) was 813 nM; against human ABCG2 ([^3H]tariquidar (1 nmol/L) as substrate), 310 nM; against human ABCB1 [9], 17.1 nM; with ABCB1 at the human BBB, 2300 ± 1000 nM; against human ABCB1 [10], 29.5 nM. Moreover, the Hill slope on human ABCG2 ([^3H]elacridar as substrate) and at human ABCG2 ([^3H]tariquidar as substrate) was 1.1 throughout. For the same molecule, the “Tariquidar plasma concentration during the PET scan (average of three determinations)” value in series [6] ([^11C]elacridar group, c.421CC, i.v. infusion, total dose 5.7 ± 0.8 mg/kg) was 2.6 ± 0.5 µmol/L. In [6] ([^11C]tariquidar group, c.421CA, i.v. infusion), the “Tariquidar plasma concentration at the time of PET” value was 3.2 ± 0.4 µmol/L. In addition, the “Tariquidar concentration in plasma of individual subjects” value (shortened to “Tariquidar concentration in plasma”) is 2.22 µmol/L in series [6] (end of PET, [^11C]elacridar c.421CA); 2.45 µmol/L and 1.98 µmol/L and 2.58 µmol/L and 2.72 µmol/L and 4.03 µmol/L in [6] (end of PET, [^11C]elacridar c.421CC); 3.67 µmol/L and 3.18 µmol/L and 2.24 µmol/L and 3.08 µmol/L and 3.79 µmol/L in series [6] (end of PET, [^11C]tariquidar c.421CA); 2.71 µmol/L and 2.78 µmol/L and 3.13 µmol/L and 3.70 µmol/L in [6] (end of PET, [^11C]tariquidar c.421CC); 2.23 µmol/L in series [6] (middle of PET, [^11C]elacridar c.421CA); 2.33 µmol/L and 2.55 µmol/L and 2.71 µmol/L and 2.43 µmol/L and 3.73 µmol/L in series [6] (middle of PET, [^11C]elacridar c.421CC). Besides, the “Tariquidar concentration in plasma” value was 3.93 µmol/L and 3.55 µmol/L and 3.31 µmol/L and 2.86 µmol/L and 3.57 µmol/L in [6] (middle of PET, [^11C]tariquidar c.421CA); 2.68 µmol/L and 2.09 µmol/L and 2.95 µmol/L and 2.70 µmol/L and 2.65 µmol/L in series [6] (middle of PET, [^11C]tariquidar c.421CC); 1.94 ^a µmol/L in series [6] (start of PET, [^11C]elacridar c.421CA); 2.67 µmol/L and 1.83 µmol/L and 1.71 µmol/L and 2.74 µmol/L and 2.73 µmol/L in [6] (start of PET, [^11C]elacridar c.421CC); 3.70 µmol/L and 2.61 µmol/L and 2.87 ^a µmol/L and 2.47 µmol/L and 2.80 µmol/L in [6] (start of PET, [^11C]tariquidar c.421CA); 2.91 µmol/L and 2.17 µmol/L and 2.65 µmol/L and 2.67 µmol/L and 2.64 µmol/L in series [6] (start of PET, [^11C]tariquidar c.421CC). Also, the “Tariquidar concentration in plasma” value is 3.76 µmol/L and 2.52 µmol/L and 4.11 µmol/L and 2.83 µmol/L and 3.38 µmol/L in series [7] (end of PET); 3.61 µmol/L and 2.71 µmol/L and 3.88 µmol/L and 2.85 µmol/L and 2.56 µmol/L in series [7] (middle of PET); 2.81 µmol/L and 1.70 µmol/L and 2.36 µmol/L and 1.91 µmol/L and 2.11 µmol/L in series [7] (start of PET). Moreover, the “Adverse event: abdominal cramps and vomiting” value in series [8] was “one”. For the same molecule, in series [8], the “Adverse event: collapse” value is “four”. The “Adverse event: dizziness” value in series [8] is recorded as “two”. The “Adverse event: dysgeusia” value in [8] turned out to be 10 subjects. Further, the “Adverse event: headache” value in series [8] was “three”. In addition, the “Adverse event: phlebitis” value in series [8] is “three”.
